Experimental data published in the supplement of paper PMC4862054.

How the values were obtained:
Details in all cases: incubation time: 72 h
MDA-MB-231 [1] = assay: drug sensitivity score (DSS), CellTox Green (DSS (AUC-based score)); higher = stronger drug effect (viability inhibition or cytotoxicity); extreme values may be limits of the assay
Outline: (§1)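 For 72 h, breast cancer cell lines seeded at 20 µl suspension per well in 384-well plates were incubated with compound at 5 concentrations in 10-fold steps spanning a 10,000-fold range that differed by compound. The first reading was CellTox Green fluorescence at 485/520 nm, and the second was CellTiter-Glo luminescence after 10 min at room temperature. Both were normalised per plate to 0.1 % DMSO and a positive kill control, and the drug sensitivity score was obtained from the area under the fitted dose-response curve.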

MFM-223 [2] = assay: as above
Outline: as §1

CAL-148 [3] = assay: as above
Outline: as §1

HDQ-P1 [4] = assay: as above
Outline: as §1

HCC1599 [5] = assay: as above
Outline: as §1

MDA-MB-453 [6] = assay: as above
Outline: as §1

HCC1937 [7] = assay: as above
Outline: as §1

BT-474 [8] = assay: as above
Outline: as §1

DU-4475 [9] = assay: as above
Outline: as §1

MDA-MB-436 [10] = assay: as above
Outline: as §1

CAL-51 [11] = assay: as above
Outline: as §1

MDA-MB-231 [12] = assay: normalised viability (% of control), CellTiter-Blue; higher = more viable cells (about 100 = DMSO control)
Outline: (§2)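 Breast cancer cell lines were treated for 72 h in 384-well format and measured by CellTiter-Blue fluorescence at 560/590 nm. Results were normalised per plate to vehicle (100) and a positive kill control (0). The entry is normalised viability at a single listed concentration of the series.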

MFM-223 [13] = assay: as above
Outline: as §2

CAL-148 [14] = assay: as above
Outline: as §2

HDQ-P1 [15] = assay: as above
Outline: as §2

CAL-120 = assay: as above
Outline: as §2

HCC1599 [16] = assay: as above
Outline: as §2

MDA-MB-453 [17] = assay: as above
Outline: as §2

HCC1937 [18] = assay: as above
Outline: as §2

BT-474 [19] = assay: as above
Outline: as §2

SK-BR-3 = assay: as above
Outline: as §2

DU-4475 [20] = assay: as above
Outline: as §2

CAL-85-1 = assay: as above
Outline: as §2

MDA-MB-436 [21] = assay: as above
Outline: as §2

Hs578T = assay: as above
Outline: as §2

HCC1143 = assay: as above
Outline: as §2

CAL-51 [22] = assay: as above
Outline: as §2

BT-549 = assay: as above
Outline: as §2

MDA-MB-468 = assay: as above
Outline: as §2

CC[C@]1(O)C[C@H]2CN(CCc3c([nH]c4ccccc34)[C@@](C(=O)OC)(c3cc4c(cc3OC)N(C=O)[C@H]3[C@@](O)(C(=O)OC)[C@H](OC(C)=O)[C@]5(CC)C=CCN6CC[C@]43[C@@H]65)C2)C1 [Vincristine]
drug sensitivity score (MDA-MB-231 [1]): 15.7
drug sensitivity score (MFM-223 [2]): 12.5
drug sensitivity score (CAL-148 [3]): 0
drug sensitivity score (HDQ-P1 [4]): 0
drug sensitivity score (HCC1599 [5]): 2.79
drug sensitivity score (MDA-MB-453 [6]): 0
drug sensitivity score (HCC1937 [7]): 0
drug sensitivity score (BT-474 [8]): 6.14
drug sensitivity score (DU-4475 [9]): 0
drug sensitivity score (MDA-MB-436 [10]): 0
drug sensitivity score (CAL-51 [11]): 14.1
normalised viability (MDA-MB-231 [12]; 100 nM): 15.5%
normalised viability (MDA-MB-231 [12]; 1000 nM): 14.3%
normalised viability (MFM-223 [13]; 100 nM): 40.2%
normalised viability (MFM-223 [13]; 1000 nM): 28.1%
normalised viability (CAL-148 [14]; 3 nM): 88.5%
normalised viability (CAL-148 [14]; 30 nM): 23.2%
normalised viability (HDQ-P1 [15]; 3 nM): 91.3%
normalised viability (HDQ-P1 [15]; 30 nM): 58.7%
normalised viability (CAL-120; 100 nM): 19.3%
normalised viability (CAL-120; 1000 nM): 19.2%
normalised viability (HCC1599 [16]; 100 nM): 59.3%
normalised viability (HCC1599 [16]; 1000 nM): 48%
normalised viability (MDA-MB-453 [17]; 3 nM): 92.1%
normalised viability (MDA-MB-453 [17]; 30 nM): 22.6%
normalised viability (HCC1937 [18]; 100 nM): 13.8%
normalised viability (HCC1937 [18]; 1000 nM): 15.1%
normalised viability (BT-474 [19]; 100 nM): 52%
normalised viability (BT-474 [19]; 1000 nM): 50.6%
normalised viability (SK-BR-3; 100 nM): 17.1%
normalised viability (SK-BR-3; 1000 nM): 17.2%
normalised viability (DU-4475 [20]; 3 nM): 94.7%
normalised viability (DU-4475 [20]; 30 nM): 48.9%
normalised viability (CAL-85-1; 3 nM): 89.9%
normalised viability (CAL-85-1; 30 nM): 33%
normalised viability (MDA-MB-436 [21]; 100 nM): 35.4%
normalised viability (MDA-MB-436 [21]; 1000 nM): 39.5%
normalised viability (Hs578T; 100 nM): 17.7%
normalised viability (Hs578T; 1000 nM): 16.8%
normalised viability (HCC1143; 100 nM): 38.8%
normalised viability (HCC1143; 1000 nM): 35.8%
normalised viability (CAL-51 [22]; 3 nM): 99%
normalised viability (CAL-51 [22]; 30 nM): 72.1%
normalised viability (BT-549; 100 nM): 22.3%
normalised viability (BT-549; 1000 nM): 16.2%
normalised viability (MDA-MB-468; 100 nM): 33.4%
normalised viability (MDA-MB-468; 1000 nM): 33.2%
